Experimental data as given in the NIST ThermoML archive (doi:10.1021/acs.jced.6b00657).

Test: xn = mol fraction of the nth substance listed
Details: Liquid, absorption in thin film, x2 = 0

CCCCCCCCn1cc[n+](C)c1.N#CC(=C=[N-])C#N [1-methyl-3-octylimidazolium tricyanomethanide] + O=C=O
Details | binary diffusion coefficient [m2/s]
298.15 K, 94 kPa | 1.5e-10
298.15 K, 194 kPa | 1.9e-10
298.15 K, 293 kPa | 1.8e-10
298.15 K, 393 kPa | 2e-10
298.15 K, 593 kPa | 2e-10
308.15 K, 194 kPa | 2.3e-10
308.15 K, 294 kPa | 2.4e-10
308.15 K, 393 kPa | 2.5e-10
308.15 K, 493 kPa | 2.5e-10
308.15 K, 593 kPa | 2.5e-10
308.15 K, 693 kPa | 2.7e-10
308.15 K, 793 kPa | 2.7e-10
308.15 K, 893 kPa | 3e-10
308.15 K, 992 kPa | 3.1e-10
308.15 K, 1093 kPa | 2.7e-10
308.15 K, 1193 kPa | 2.5e-10
308.15 K, 1293 kPa | 3.2e-10
308.15 K, 1392 kPa | 3.3e-10
308.15 K, 1492 kPa | 3.5e-10
308.15 K, 1593 kPa | 3.4e-10
308.15 K, 1693 kPa | 3.8e-10
308.15 K, 1793 kPa | 4e-10
308.15 K, 1892 kPa | 3.9e-10
308.15 K, 1993 kPa | 3.9e-10
323.15 K, 94 kPa | 3.2e-10
323.15 K, 194 kPa | 3.4e-10
323.15 K, 293 kPa | 3.5e-10
323.15 K, 393 kPa | 3.3e-10
323.15 K, 493 kPa | 3.3e-10
323.15 K, 593 kPa | 3.6e-10
323.15 K, 693 kPa | 3.9e-10
323.15 K, 793 kPa | 4e-10
323.15 K, 893 kPa | 3.9e-10
323.15 K, 992 kPa | 3.9e-10
323.15 K, 1093 kPa | 3.8e-10
323.15 K, 1193 kPa | 3.6e-10
323.15 K, 1292 kPa | 3.9e-10
323.15 K, 1393 kPa | 4e-10
323.15 K, 1493 kPa | 4.2e-10
323.15 K, 1593 kPa | 4.1e-10
323.15 K, 1692 kPa | 4.6e-10
323.15 K, 1793 kPa | 3.9e-10
323.15 K, 1892 kPa | 4.5e-10
323.15 K, 1993 kPa | 4.4e-10
338.25 K, 94 kPa | 4.3e-10
338.25 K, 194 kPa | 4.1e-10
338.25 K, 294 kPa | 4.5e-10
338.25 K, 394 kPa | 4.4e-10
338.25 K, 494 kPa | 4.2e-10
338.25 K, 593 kPa | 4.8e-10
338.25 K, 692 kPa | 4.3e-10
338.25 K, 794 kPa | 4.7e-10
338.25 K, 892 kPa | 4.2e-10
338.25 K, 993 kPa | 3.8e-10
338.25 K, 1093 kPa | 5e-10
338.25 K, 1193 kPa | 5.1e-10
338.25 K, 1292 kPa | 5e-10
338.25 K, 1392 kPa | 4.9e-10
338.25 K, 1493 kPa | 5e-10
338.25 K, 1692 kPa | 6e-10
338.25 K, 1793 kPa | 5.9e-10
338.25 K, 1892 kPa | 5.5e-10
338.25 K, 1993 kPa | 5.2e-10
353.25 K, 494 kPa | 5.7e-10
353.25 K, 594 kPa | 5.5e-10
353.25 K, 993 kPa | 6e-10
353.25 K, 1093 kPa | 6.7e-10
353.25 K, 1193 kPa | 5.1e-10
353.25 K, 1293 kPa | 4.7e-10
353.25 K, 1392 kPa | 6.5e-10
353.25 K, 1493 kPa | 5.6e-10
353.25 K, 1793 kPa | 7.6e-10
353.25 K, 1893 kPa | 5.8e-10

CCCCCC[n+]1ccn(C)c1.N#C[C-](C#N)C#N [3-hexyl-1-methylimidazolium tricyanomethanide] + O=C=O
Details | binary diffusion coefficient [m2/s]
298.15 K, 94 kPa | 2e-10
298.15 K, 194 kPa | 1.8e-10
298.15 K, 293 kPa | 1.8e-10
298.15 K, 393 kPa | 2e-10
298.15 K, 493 kPa | 2e-10
298.15 K, 693 kPa | 2.4e-10
298.15 K, 793 kPa | 2.4e-10
298.15 K, 893 kPa | 2.4e-10
298.15 K, 993 kPa | 2.2e-10
298.15 K, 1193 kPa | 3e-10
298.15 K, 1293 kPa | 3.2e-10
298.15 K, 1393 kPa | 2.9e-10
298.15 K, 1493 kPa | 3e-10
298.15 K, 1693 kPa | 3.1e-10
298.15 K, 1793 kPa | 3.3e-10
308.15 K, 101 kPa | 2.6e-10
308.15 K, 198 kPa | 2.4e-10
308.15 K, 297 kPa | 2.5e-10
308.15 K, 394 kPa | 2.5e-10
308.15 K, 494 kPa | 2.5e-10
308.15 K, 593 kPa | 2.5e-10
308.15 K, 692 kPa | 2.7e-10
308.15 K, 793 kPa | 2.2e-10
308.15 K, 892 kPa | 3.3e-10
308.15 K, 993 kPa | 2.9e-10
308.15 K, 1093 kPa | 3.1e-10
308.15 K, 1192 kPa | 3.3e-10
308.15 K, 1292 kPa | 3.3e-10
308.15 K, 1393 kPa | 3.4e-10
308.15 K, 1492 kPa | 3.4e-10
308.15 K, 1592 kPa | 4e-10
308.15 K, 1693 kPa | 3.8e-10
308.15 K, 1793 kPa | 4.1e-10
308.15 K, 1893 kPa | 4e-10
308.15 K, 1993 kPa | 4.1e-10
323.15 K, 94 kPa | 2.8e-10
323.15 K, 194 kPa | 4.1e-10
323.15 K, 293 kPa | 3.1e-10
323.15 K, 393 kPa | 3.5e-10
323.15 K, 493 kPa | 3.9e-10
323.15 K, 594 kPa | 4.2e-10
323.15 K, 693 kPa | 3.7e-10
323.15 K, 793 kPa | 3.7e-10
323.15 K, 893 kPa | 3.9e-10
323.15 K, 993 kPa | 4e-10
323.15 K, 1093 kPa | 3.8e-10
323.15 K, 1193 kPa | 4e-10
323.15 K, 1293 kPa | 4e-10
323.15 K, 1393 kPa | 4.4e-10
323.15 K, 1493 kPa | 4.3e-10
323.15 K, 1593 kPa | 4.2e-10
323.15 K, 1693 kPa | 4.7e-10
323.15 K, 1793 kPa | 4.5e-10
323.15 K, 1893 kPa | 3.7e-10
323.15 K, 1993 kPa | 5.4e-10
338.25 K, 194 kPa | 5.1e-10
338.25 K, 294 kPa | 3.7e-10
338.25 K, 393 kPa | 4.9e-10
338.25 K, 494 kPa | 6.7e-10
338.25 K, 693 kPa | 4.9e-10
338.25 K, 793 kPa | 4.8e-10
338.25 K, 893 kPa | 5.8e-10
338.25 K, 993 kPa | 5.3e-10
338.25 K, 1092 kPa | 5.3e-10
338.25 K, 1193 kPa | 5.3e-10
338.25 K, 1292 kPa | 5.6e-10
338.25 K, 1393 kPa | 4.8e-10
338.25 K, 1493 kPa | 5.5e-10
338.25 K, 1592 kPa | 4.9e-10
338.25 K, 1693 kPa | 6.6e-10
338.25 K, 1792 kPa | 6e-10
338.25 K, 1893 kPa | 6.1e-10
338.25 K, 1993 kPa | 6.3e-10
353.25 K, 594 kPa | 6.4e-10
353.25 K, 694 kPa | 7.1e-10
353.25 K, 893 kPa | 6e-10
353.25 K, 993 kPa | 6.5e-10
353.25 K, 1193 kPa | 6.3e-10
353.25 K, 1293 kPa | 6.8e-10
353.25 K, 1393 kPa | 6.3e-10
353.25 K, 1593 kPa | 5.3e-10
353.25 K, 1693 kPa | 7.6e-10
353.25 K, 1793 kPa | 7.7e-10
353.25 K, 1893 kPa | 7.7e-10
353.25 K, 1993 kPa | 6.7e-10
